The text below walks through data of PubChem BioAssay (NCI).

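Assay format: 96-well plates, 48-hour exposure. TGI marks complete inhibition of growth.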 A value given as a limit tells only on which side of the number the result lay.

Test systems include HOP-62 NSCLC; DU-145 prostate; CCRF-CEM leukemia; SN12C renal; 786-0 renal; SK-OV-3 ovarian; KM12 colon; MCF7 breast; MALME-3M melanoma; RXF 393 renal; TK-10 renal; OVCAR-4 ovarian; HCT-116 colon; PC-3 prostate; EKVX NSCLC; MOLT-4 leukemia.
What all share (test): growth of human tumour cells (NCI), 48 h

For `O=c1[nH]c(=O)n(C2CC(O)C(CO)O2)cc1NN=NCCCc1ccccc1` (centres undefined), the TGI in the assay with HOP-62 NSCLC, in the assay on DU-145 prostate, with CCRF-CEM leukemia, in the assay on SN12C renal, in the assay on 786-0 renal and with SK-OV-3 ovarian was more than 100 µM throughout. Further, the TGI in the assay on KM12 colon, with MCF7 breast, in the assay on MALME-3M melanoma, with RXF 393 renal, in the assay with TK-10 renal and with OVCAR-4 ovarian was more than 100 µM throughout. Moreover, the TGI in the assay on HCT-116 colon, in the assay on PC-3 prostate, in the assay on EKVX NSCLC and in the assay on MOLT-4 leukemia was more than 100 µM throughout.

Regarding `CCCCCCCC(CC(=O)NC(CO)C(=O)NC(CO)CC(C)C)OC(=O)CC(CCCCCCC)OC(=O)CC(CCCCCCC)OC1OC(C)C(O)C(OC2OC(C)C(O)C(O)C2OC(C)=O)C1O` (centres undefined), the TGI came to 27.1 µM in the assay with HOP-62 NSCLC; 22.4 µM in the assay on DU-145 prostate; 11.8 µM in the assay with CCRF-CEM leukemia; 16.8 µM in the assay with SN12C renal; 17.6 µM with 786-0 renal; 30.3 µM with SK-OV-3 ovarian. For the same compound, the TGI in the assay on KM12 colon stood at 10.8 µM; with MCF7 breast, 23.8 µM; in the assay with MALME-3M melanoma, 23.2 µM; with RXF 393 renal it was 9.29 µM; with TK-10 renal it was 26 µM; with OVCAR-4 ovarian, 19.9 µM. Further, the TGI in the assay with HCT-116 colon is 15.1 µM; in the assay on PC-3 prostate it was 15.8 µM; with EKVX NSCLC, 27.9 µM; in the assay with MOLT-4 leukemia it was 10.5 µM.

As for `CC1=NN(C(=O)CC(=O)Nc2ccccc2Cl)C(=O)C1N=Nc1ccc(S(=O)(=O)c2ccc(N=NC3C(=O)N(C(=O)CC(=O)Nc4ccccc4Cl)N=C3C)cc2)cc1` (centres undefined), the TGI in the assay with HOP-62 NSCLC, in the assay on DU-145 prostate, in the assay with CCRF-CEM leukemia, with SN12C renal, with 786-0 renal and with SK-OV-3 ovarian was more than 100 µM throughout. Further, the TGI in the assay on KM12 colon, in the assay on MCF7 breast, in the assay with MALME-3M melanoma, with RXF 393 renal, in the assay with TK-10 renal and in the assay on OVCAR-4 ovarian was more than 100 µM throughout. Besides, the TGI in the assay on HCT-116 colon, in the assay with PC-3 prostate, in the assay on EKVX NSCLC and in the assay with MOLT-4 leukemia was more than 100 µM each time.

On to `CCOC(=O)c1sc2nc(SC)nc3c2c1NCN3c1ccc(F)c(F)c1`, for which the TGI with HOP-62 NSCLC was 34.1 µM; with DU-145 prostate it was more than 100 µM; in the assay with CCRF-CEM leukemia, more than 100 µM; in the assay on SN12C renal, more than 100 µM; with 786-0 renal, 12.4 µM; in the assay on SK-OV-3 ovarian, 43.5 µM. Further, the TGI is more than 86.5 µM in the assay with KM12 colon; more than 100 µM with MCF7 breast; more than 49.1 µM with MALME-3M melanoma; 16.7 µM in the assay on RXF 393 renal; 64.1 µM in the assay with TK-10 renal; 17.7 µM in the assay with OVCAR-4 ovarian. Besides, the TGI in the assay with HCT-116 colon was 54.6 µM; in the assay with PC-3 prostate it was more than 59.8 µM; in the assay on EKVX NSCLC, more than 100 µM; in the assay on MOLT-4 leukemia, more than 100 µM.

As for `C=CC(OC(C)=O)c1ccc(OC(=O)C(C)C)c(OC)c1` (centres undefined), the TGI in the assay on HOP-62 NSCLC came to 28.4 µM; in the assay on DU-145 prostate, 24.5 µM; in the assay with CCRF-CEM leukemia, 5.03 µM; with SN12C renal, 15.2 µM; in the assay with 786-0 renal it was 4.25 µM; with SK-OV-3 ovarian, 30.3 µM. The TGI in the assay on KM12 colon was 7.2 µM; in the assay with MCF7 breast it was 5.54 µM; in the assay with MALME-3M melanoma it was 4.43 µM; with RXF 393 renal, 14.4 µM; in the assay on TK-10 renal it was 11.5 µM; in the assay with OVCAR-4 ovarian, 16.2 µM. Besides, the TGI in the assay on HCT-116 colon was determined as 22.5 µM; in the assay with PC-3 prostate, 19.3 µM; in the assay on EKVX NSCLC, 16.6 µM; in the assay with MOLT-4 leukemia, 36.2 µM.

With `COC(=O)C1=C(OC(=O)/C=C/c2ccccc2)C(C(=O)OC)[C@@]2(O)[C@@H](C(=O)OC)[C@H](C)C[C@@H]1[C@@H]2C(=O)OC` (some centres undefined), the TGI in the assay with HOP-62 NSCLC was 48.2 µM; in the assay with DU-145 prostate, more than 100 µM; in the assay with CCRF-CEM leukemia, more than 100 µM; with SN12C renal it was 41.7 µM; in the assay on 786-0 renal it was 50 µM; in the assay on SK-OV-3 ovarian, 70.2 µM. The TGI with KM12 colon is more than 100 µM; in the assay on MCF7 breast, 91.4 µM; with MALME-3M melanoma, 65.5 µM; with RXF 393 renal, 34.1 µM; with TK-10 renal, more than 100 µM; in the assay on OVCAR-4 ovarian, more than 100 µM. Also, the TGI in the assay with HCT-116 colon is 88.4 µM; with PC-3 prostate, more than 100 µM; in the assay with EKVX NSCLC, 65.2 µM; with MOLT-4 leukemia it was more than 100 µM.

With `CC(=O)OC(Cc1ccc2ccccc2n1)(C(F)(F)F)C(F)(F)F`, the TGI came to 27.9 µM with HOP-62 NSCLC; 17.9 µM in the assay on DU-145 prostate; 1.95 µM in the assay on CCRF-CEM leukemia; 7.27 µM in the assay with SN12C renal; 6.37 µM in the assay with 786-0 renal; 33 µM with SK-OV-3 ovarian. The TGI in the assay with KM12 colon is 12.7 µM; in the assay with MCF7 breast it was 0.559 µM; in the assay on MALME-3M melanoma it was 5.21 µM; in the assay with RXF 393 renal, 2.84 µM; in the assay with TK-10 renal, 2.55 µM; with OVCAR-4 ovarian, 7.08 µM. For the same compound, the TGI with HCT-116 colon stood at 4.24 µM; with PC-3 prostate, 11.7 µM; in the assay on EKVX NSCLC it was 10.2 µM; with MOLT-4 leukemia, 16 µM.

Consider `C(=N\Nc1ccc(-c2nc3ccccc3[nH]2)cc1)/c1c(-c2ccc(Cc3ccccc3)cc2)[nH]c2ccccc12`, for which the TGI was more than 100 µM with HOP-62 NSCLC; more than 80.8 µM with DU-145 prostate; more than 100 µM in the assay with CCRF-CEM leukemia; more than 100 µM in the assay with SN12C renal; more than 42.6 µM with 786-0 renal; more than 100 µM in the assay with SK-OV-3 ovarian. Besides, the TGI is more than 41.3 µM in the assay on KM12 colon; more than 48.8 µM with MCF7 breast; 23.2 µM in the assay on MALME-3M melanoma; 14.5 µM with RXF 393 renal; more than 95.4 µM in the assay with TK-10 renal; more than 93.6 µM with OVCAR-4 ovarian. Besides, the TGI in the assay on HCT-116 colon was more than 68.4 µM; with PC-3 prostate, 39.2 µM; in the assay on EKVX NSCLC it was more than 100 µM; in the assay on MOLT-4 leukemia, more than 37.3 µM.

Regarding `O=c1c2c3c(sc2nc2n1N=C(c1ccc(Cl)cc1)CS2)CCCC3`, the TGI in the assay with HOP-62 NSCLC, with DU-145 prostate, in the assay with CCRF-CEM leukemia, in the assay on SN12C renal, in the assay with 786-0 renal and in the assay with SK-OV-3 ovarian was more than 100 µM in each case. Further, the TGI with KM12 colon, in the assay with MCF7 breast, in the assay on MALME-3M melanoma, in the assay on RXF 393 renal, with TK-10 renal and in the assay with OVCAR-4 ovarian was more than 100 µM in each case. Moreover, the TGI in the assay on HCT-116 colon, in the assay on PC-3 prostate, in the assay with EKVX NSCLC and in the assay on MOLT-4 leukemia was more than 100 µM in each case.
